Test results published in publication PMC5724969 (Nature chemical biology, 2017).
Where two headings read alike, the source gives them in different places.

Test system: chPylRS (chimeric pyrrolysyl-tRNA synthetase)
Assay: […]-tRNA aminoacylation assay, nuclease P1/TLC
Format: biochemical, Methanosarcina mazei; Methanosarcina barkeri
Details: tRNA(Pyl), 10 mM MgCl2, pH 7.2

| SMILES | Km (read-out: KM ^ATP, BocK as amino acid) | Km (read-out: KM^BocK, ATP) |
| --- | --- | --- |
| Nc1ncnc2c1ncn2[C@@H]1O[C@H](COP(=O)(O)OP(=O)(O)OP(=O)(O)O)[C@@H](O)[C@H]1O [ATP] | 2.54 ± 0.16 µM |  |
| CC(C)(C)OC(=O)NCCCC[C@H](N)C(=O)O [compound 2, BocK] |  | 1030 ± 50 µM |
